Assay results published in ChEMBL document CHEMBL4270673, “Receptor-Ligand Interaction Measured by Inductively Coupled Plasma Mass Spectrometry and Selenium Labeling” (J Med Chem, 2018).
Where a SMILES comes first, the peptide text is derived from it. [ ]: non-standard residue; d: D form. The star is where a group is joined. SeMet = C[Se]CC[C@H](N)C(=O)O; X1 = O=C(C[Se]c1ccccc1)*; Ahx = NCCCCCC(=O)O

How the values were obtained:
[1] = biological target: T1, Gastrin/cholecystokinin type B receptor (Homo sapiens, UniProt P32239); assay: Binding affinity to CCKB receptor (unknown origin) expressed in HEK cells after 4 hrs by RP-LC-ICPMS analysis; type: cell-based
T1 sequence (P32239 whole entry): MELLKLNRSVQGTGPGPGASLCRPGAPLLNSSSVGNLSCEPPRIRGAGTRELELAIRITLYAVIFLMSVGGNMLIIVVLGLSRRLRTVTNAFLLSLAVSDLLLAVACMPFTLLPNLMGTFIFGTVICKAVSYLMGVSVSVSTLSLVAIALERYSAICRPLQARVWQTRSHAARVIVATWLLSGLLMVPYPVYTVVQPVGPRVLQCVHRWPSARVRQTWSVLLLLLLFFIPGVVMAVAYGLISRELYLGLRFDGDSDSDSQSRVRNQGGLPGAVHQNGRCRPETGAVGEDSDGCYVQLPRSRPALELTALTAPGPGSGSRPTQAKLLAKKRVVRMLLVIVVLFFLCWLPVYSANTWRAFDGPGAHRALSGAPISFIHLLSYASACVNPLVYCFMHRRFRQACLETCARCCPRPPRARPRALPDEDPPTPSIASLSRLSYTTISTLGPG

[2] = biological target: T1, Gastrin/cholecystokinin type B receptor; assay: Displacement of non-sulfated CCK-8 from CCKB receptor (unknown origin) expressed in HEK cells after 4 hrs by RP-LC-ICPMS analysis; type: cell-based
Vasopressin V1a receptor [3] = biological target: T2, Vasopressin V1a receptor (Homo sapiens, UniProt P37288); assay: Displacement of [125I]OH-Phpa-LVA from human V1A receptor expressed in CHO cells after 4 hrs by gamma counter analysis; type: cell-based
Target sequence in this assay (P37288 whole entry): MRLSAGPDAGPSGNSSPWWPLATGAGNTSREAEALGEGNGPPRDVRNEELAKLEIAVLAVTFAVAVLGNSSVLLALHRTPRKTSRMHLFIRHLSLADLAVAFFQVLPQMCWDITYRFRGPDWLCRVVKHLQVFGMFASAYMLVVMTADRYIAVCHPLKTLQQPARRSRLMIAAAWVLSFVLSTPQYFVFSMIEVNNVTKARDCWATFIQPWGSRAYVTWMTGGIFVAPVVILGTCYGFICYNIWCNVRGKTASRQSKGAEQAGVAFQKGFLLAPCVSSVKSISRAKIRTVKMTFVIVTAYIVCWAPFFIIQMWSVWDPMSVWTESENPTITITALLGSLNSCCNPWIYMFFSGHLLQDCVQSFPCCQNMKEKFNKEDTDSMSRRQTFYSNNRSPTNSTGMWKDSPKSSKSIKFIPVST

Vasopressin V1a receptor [4] = biological target: T2, Vasopressin V1a receptor; assay: Displacement of [Se-Se]-AVP from human V1A receptor expressed in CHO cells after 4 hrs by RP-LC-ICPMS analysis; type: cell-based
Target sequence in this assay (P37288 whole entry): as above

Vasopressin V1a receptor [5] = biological target: T2, Vasopressin V1a receptor; assay: Binding affinity to human V1A receptor expressed in CHO cell membranes
Target sequence in this assay (P37288 whole entry): as above

Vasopressin V1a receptor [6] = biological target: T2, Vasopressin V1a receptor; assay: Binding affinity to human V1A receptor expressed in CHO cells after 4 hrs by RP-LC-ICPMS analysis; type: cell-based
Target sequence in this assay (P37288 whole entry): as above

Vasopressin V1a receptor [7] = biological target: T2, Vasopressin V1a receptor; assay: Binding affinity to human V1A receptor expressed in CHO cells assessed per million cells after 4 hrs by RP-LC-ICPMS analysis; type: cell-based
Target sequence in this assay (P37288 whole entry, looked up): as the sequence (P37288 whole entry) above

Vasopressin V1a receptor [8] = biological target: T2, Vasopressin V1a receptor; assay: Displacement of [Sez6]-HO-Phpa-LVA from human V1A receptor expressed in CHO cells after 4 hrs by RP-LC-ICPMS analysis; type: cell-based
Target sequence in this assay (P37288 whole entry): as above

Vasopressin V1a receptor [9] = biological target: T2, Vasopressin V1a receptor; assay: Displacement of [Ph-Se-acetyl]-LVA from human V1A receptor expressed in CHO cells after 4 hrs by RP-LC-ICPMS analysis; type: cell-based
Target sequence in this assay (P37288 whole entry): as above

Compound | Ki (Vasopressin V1a receptor [3]) [nM] | Ki (Vasopressin V1a receptor [4]) [nM] | Bmax (Vasopressin V1a receptor [7]) [fmol] | also measured
CSCC[C@H](NC(=O)[C@H](Cc1c[nH]c2ccccc12)NC(=O)CCCCCNC(=O)[C@H](CCCNC(=N)N)NC(=O)[C@H](CC[Se]C)NC(C)=O)C(=O)N[C@@H](CC(=O)O)C(=O)N[C@@H](Cc1ccccc1)C(N)=O (Ac-[SeMet]R[Ahx]WMDF-NH2) | – | – | – | Kd [1]: 45.5 nM; Ki [2]: 3.91 nM
CSCC[C@H](NC(=O)[C@H](Cc1c[nH]c2ccccc12)NC(=O)CCCCCNC(=O)[C@H](CCCNC(=N)N)NC(=O)C[Se]c1ccccc1)C(=O)N[C@@H](CC(=O)O)C(=O)N[C@@H](Cc1ccccc1)C(N)=O (X1-R[Ahx]WMDF-NH2) | – | – | – | Kd [1]: 29.3 nM; Ki [2]: 7.93 nM
N=C(N)NCCC[C@H](NC(=O)[C@@H]1CCCN1C(=O)[C@@H]1C[Se][Se]C[C@H](N)C(=O)N[C@@H](Cc2ccc(O)cc2)C(=O)N[C@@H](Cc2ccccc2)C(=O)N[C@@H](CCC(N)=O)C(=O)N[C@@H](CC(N)=O)C(=O)N1)C(=O)NCC(N)=O | 0.7 | 1.7 | – | Kd (Vasopressin V1a receptor [5]): 0.6 to 3 nM
COc1ccc(C[C@@H](NC(=O)CCc2ccc(O)cc2)C(=O)N[C@@H](Cc2ccccc2)C(=O)N[C@@H](CCC(N)=O)C(=O)N[C@@H](CC(N)=O)C(=O)N[C@@H](CCCNC(=N)N)C(=O)N2C[Se]C[C@H]2C(=O)N[C@@H](CCCNC(=N)N)C(N)=O)cc1 | 0.9 | 0.4 | 845 | Kd (Vasopressin V1a receptor [6]): 0.45 nM; Ki (Vasopressin V1a receptor [8]): 3.8 nM
N=C(N)NCCC[C@@H](NC(=O)[C@@H]1CCCN1C(=O)[C@@H]1C[Se][Se]C[C@H](N)C(=O)N[C@@H](Cc2ccc(O)cc2)C(=O)N[C@@H](Cc2ccccc2)C(=O)N[C@@H](CCC(N)=O)C(=O)N[C@@H](CC(N)=O)C(=O)N1)C(=O)NCC(N)=O | – | – | 1060 | –
N=C(N)NCCC[C@H](NC(=O)[C@@H]1CCCN1C(=O)[C@@H]1C[Se]C[C@H](N)C(=O)N[C@@H](Cc2ccc(O)cc2)C(=O)N[C@@H](Cc2ccccc2)C(=O)N[C@@H](CCC(N)=O)C(=O)N[C@@H](CC(N)=O)C(=O)N1)C(=O)NCC(N)=O | 1280 | – | – | –
COc1ccc(C[C@@H](NC(=O)CCc2ccc(O)cc2)C(=O)N[C@@H](Cc2ccccc2)C(=O)N[C@@H](CCC(N)=O)C(=O)N[C@@H](CC(N)=O)C(=O)N[C@@H](CCCNC(=N)N)C(=O)N2CCC[C@H]2C(=O)N[C@@H](CCCNC(=N)N)C(N)=O)cc1 | 0.8 | 0.2 | – | –
CCOc1ccc2c(c1)[C@]1(CC[C@H](OCCN3CCOCC3)CC1)C(=O)N2S(=O)(=O)c1ccc(C(=O)NC(C)(C)C)cc1OC | 304 | 2950 | – | –
COc1ccc(C[C@@H](NC(=O)C[Se]c2ccc(O)cc2)C(=O)N[C@@H](Cc2ccccc2)C(=O)N[C@@H](CCC(N)=O)C(=O)N[C@@H](CC(N)=O)C(=O)N[C@@H](CCCNC(=N)N)C(=O)N2CCC[C@H]2C(=O)N[C@@H](CCCNC(=N)N)C(N)=O)cc1 | 0.9 | – | 696 | Kd (Vasopressin V1a receptor [6]): 0.32 nM; Ki (Vasopressin V1a receptor [9]): 12.9 nM
